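Results reflect a 48-hour exposure of cells in 96-well plates to compound at five concentrations. Definition used: TGI = concentration required for complete inhibition of growth.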
Tests used:
Assay in all cases: NCI anticancer screen, dose series, 48 h
RXF 393 renal = test system: RXF 393 renal
BT-549 breast = test system: BT-549 breast
OVCAR-8 ovarian = test system: OVCAR-8 ovarian
ACHN renal = test system: ACHN renal
IGROV1 ovarian = test system: IGROV1 ovarian
M14 melanoma = test system: M14 melanoma
LOX IMVI melanoma = test system: LOX IMVI melanoma
OVCAR-3 ovarian = test system: OVCAR-3 ovarian
SNB-19 CNS = test system: SNB-19 CNS
CAKI-1 renal = test system: CAKI-1 renal
UACC-257 melanoma = test system: UACC-257 melanoma
SN12C renal = test system: SN12C renal
A498 renal = test system: A498 renal
HCC-2998 colon = test system: HCC-2998 colon
HL-60(TB) leukemia = test system: HL-60(TB) leukemia
NCI-H23 lung = test system: NCI-H23 lung
MOLT-4 leukemia = test system: MOLT-4 leukemia
OVCAR-5 ovarian = test system: OVCAR-5 ovarian
U251 CNS = test system: U251 CNS
OVCAR-4 ovarian = test system: OVCAR-4 ovarian
COLO 205 colon = test system: COLO 205 colon
NCI-H460 lung = test system: NCI-H460 lung
TK-10 renal = test system: TK-10 renal
EKVX NSCLC = test system: EKVX NSCLC
HOP-92 NSCLC = test system: HOP-92 NSCLC
SF-268 CNS = test system: SF-268 CNS
UO-31 renal = test system: UO-31 renal
SK-MEL-2 melanoma = test system: SK-MEL-2 melanoma
786-0 renal = test system: 786-0 renal
HOP-62 NSCLC = test system: HOP-62 NSCLC
SF-539 CNS = test system: SF-539 CNS
SK-MEL-5 melanoma = test system: SK-MEL-5 melanoma
T-47D breast = test system: T-47D breast
HCT-15 colon = test system: HCT-15 colon
NCI/ADR-RES ovarian = test system: NCI/ADR-RES ovarian
KM12 colon = test system: KM12 colon
HT29 colon = test system: HT29 colon
SF-295 CNS = test system: SF-295 CNS
MDA-N = test system: MDA-N
MDA-MB-435 = test system: MDA-MB-435
SW-620 colon = test system: SW-620 colon
HCT-116 colon = test system: HCT-116 colon
A549 NSCLC = test system: A549 NSCLC
SNB-75 CNS = test system: SNB-75 CNS
MDA-MB-231 breast = test system: MDA-MB-231 breast
DU-145 prostate = test system: DU-145 prostate
SK-OV-3 ovarian = test system: SK-OV-3 ovarian
SK-MEL-28 melanoma = test system: SK-MEL-28 melanoma
UACC-62 melanoma = test system: UACC-62 melanoma
NCI-H226 lung = test system: NCI-H226 lung
K-562 leukemia = test system: K-562 leukemia
SR leukemia = test system: SR leukemia
NCI-H522 lung = test system: NCI-H522 lung
RPMI-8226 leukemia = test system: RPMI-8226 leukemia
HS 578T breast = test system: HS 578T breast
MCF7 breast = test system: MCF7 breast
MALME-3M melanoma = test system: MALME-3M melanoma
PC-3 prostate = test system: PC-3 prostate
CCRF-CEM leukemia = test system: CCRF-CEM leukemia

Measured: TGI

CC(=O)/C(=C/N1CC(=O)NC1=S)C(=O)Nc1ccccc1C
> 100 µM: RXF 393 renal | BT-549 breast | OVCAR-8 ovarian | ACHN renal | IGROV1 ovarian | M14 melanoma | LOX IMVI melanoma | OVCAR-3 ovarian | SNB-19 CNS | CAKI-1 renal | UACC-257 melanoma | SN12C renal | A498 renal | HCC-2998 colon | HL-60(TB) leukemia | NCI-H23 lung | MOLT-4 leukemia | OVCAR-5 ovarian | U251 CNS | OVCAR-4 ovarian | COLO 205 colon | NCI-H460 lung | TK-10 renal | EKVX NSCLC | HOP-92 NSCLC | SF-268 CNS | UO-31 renal | SK-MEL-2 melanoma | 786-0 renal | HOP-62 NSCLC | SF-539 CNS | SK-MEL-5 melanoma | T-47D breast | HCT-15 colon | NCI/ADR-RES ovarian | KM12 colon | HT29 colon | SF-295 CNS | MDA-N | MDA-MB-435 | SW-620 colon | HCT-116 colon | A549 NSCLC | SNB-75 CNS | MDA-MB-231 breast | DU-145 prostate | SK-OV-3 ovarian | SK-MEL-28 melanoma

C/C(CC(O)(C(F)(F)F)C(F)(F)F)=N\NC(N)=S
> 10 µM: UACC-62 melanoma | RXF 393 renal | NCI-H226 lung | OVCAR-8 ovarian | ACHN renal | K-562 leukemia | SR leukemia | IGROV1 ovarian | M14 melanoma | LOX IMVI melanoma | NCI-H522 lung | OVCAR-3 ovarian | SNB-19 CNS | CAKI-1 renal | UACC-257 melanoma | SN12C renal | A498 renal | HCC-2998 colon | HL-60(TB) leukemia | NCI-H23 lung | MOLT-4 leukemia | U251 CNS | OVCAR-4 ovarian | COLO 205 colon | NCI-H460 lung | RPMI-8226 leukemia | TK-10 renal | EKVX NSCLC | HOP-92 NSCLC | SF-268 CNS | HS 578T breast | UO-31 renal | SK-MEL-2 melanoma | MCF7 breast | 786-0 renal | MALME-3M melanoma | PC-3 prostate | HOP-62 NSCLC | SF-539 CNS | SK-MEL-5 melanoma | T-47D breast | HCT-15 colon | NCI/ADR-RES ovarian | KM12 colon | HT29 colon | SF-295 CNS | MDA-N | MDA-MB-435 | SW-620 colon | HCT-116 colon | A549 NSCLC | SNB-75 CNS | MDA-MB-231 breast | DU-145 prostate | CCRF-CEM leukemia | SK-OV-3 ovarian | SK-MEL-28 melanoma

CC[C@@]1(O)C(=O)OCc2c1cc1n(c2=O)Cc2c-1nc1ccccc1c2/C=N\NC(=O)C(N)Cc1ccc(O)cc1 (stereo partly specified)
> 25.7 µM: T-47D breast
2.7 µM: SK-MEL-5 melanoma
6.55 µM: 786-0 renal
4.38 µM: RXF 393 renal
18.9 µM: UACC-257 melanoma
5.62 µM: RPMI-8226 leukemia
10.8 µM: NCI-H460 lung
1.82 µM: NCI-H23 lung
9.77 µM: SK-OV-3 ovarian
5.21 µM: NCI-H522 lung
2.64 µM: NCI-H226 lung
3.65 µM: A498 renal
> 31.6 µM: BT-549 breast | SNB-19 CNS | OVCAR-4 ovarian | COLO 205 colon | TK-10 renal | HCT-15 colon | MDA-N | MDA-MB-231 breast
1.71 µM: UACC-62 melanoma
> 100 µM: K-562 leukemia
0.217 µM: SF-539 CNS
7.75 µM: SN12C renal
5.64 µM: HOP-92 NSCLC
2.77 µM: LOX IMVI melanoma
8.76 µM: UO-31 renal
5.04 µM: U251 CNS
7.8 µM: MALME-3M melanoma
3.16 µM: SF-295 CNS
1.15 µM: CCRF-CEM leukemia
1.59 µM: MOLT-4 leukemia
0.396 µM: SR leukemia
2.75 µM: ACHN renal
4.69 µM: HL-60(TB) leukemia
4.44 µM: HCT-116 colon

C[C@@H](c1ccccc1)N1C[C@@H](c2ccc3c(c2)OCO3)[C@@H]2C(=O)CCC[C@@H]21
59.1 µM: A498 renal
52 µM: UACC-62 melanoma
67.2 µM: ACHN renal
87.5 µM: MALME-3M melanoma
77.6 µM: MOLT-4 leukemia
76 µM: SK-MEL-28 melanoma
76.7 µM: HCC-2998 colon
> 100 µM: RXF 393 renal | NCI-H226 lung | OVCAR-8 ovarian | K-562 leukemia | SR leukemia | IGROV1 ovarian | LOX IMVI melanoma | NCI-H522 lung | SNB-19 CNS | CAKI-1 renal | UACC-257 melanoma | SN12C renal | HL-60(TB) leukemia | NCI-H23 lung | OVCAR-5 ovarian | U251 CNS | OVCAR-4 ovarian | NCI-H460 lung | TK-10 renal | EKVX NSCLC | HOP-92 NSCLC | SF-268 CNS | HS 578T breast | UO-31 renal | 786-0 renal | PC-3 prostate | HOP-62 NSCLC | SK-MEL-5 melanoma | T-47D breast | HCT-15 colon | NCI/ADR-RES ovarian | KM12 colon | HT29 colon | SF-295 CNS | MDA-N | MDA-MB-435 | HCT-116 colon | A549 NSCLC | SNB-75 CNS | MDA-MB-231 breast | DU-145 prostate | CCRF-CEM leukemia | SK-OV-3 ovarian
36.9 µM: M14 melanoma
71.5 µM: MCF7 breast
94.8 µM: SK-MEL-2 melanoma
42.4 µM: COLO 205 colon
92.8 µM: RPMI-8226 leukemia

— PubChem BioAssay (NCI)
